In brackets after ≈: the same amount, converted by molar mass. Several values for one entry are separate records, joined by “and”; a condition that tells them apart may be missing. Equal values may be shown once. Read-outs that look alike come from different tables or passages of the source.
How the values were obtained:
Streptococcus agalactiae = test: MIC by broth microdilution; format: cell-based; conditions: for MIC90: Streptococcus agalactiae
Streptococcus pneumoniae = test: MIC by broth microdilution; format: cell-based; conditions: for MIC90: Streptococcus pneumoniae, PRSP
S. epidermidis = test: MIC by broth microdilution; format: cell-based; conditions: for MIC90: Staphylococcus epidermidis
Enterococcus faecalis = test: MIC by broth microdilution; format: cell-based; conditions: for MIC Range: Enterococcus faecalis 50% VRE, 10 contemporary clinical isolates; for MIC90: Enterococcus faecalis, VRE
Streptococcus pyogenes = test: MIC by broth microdilution; format: cell-based; conditions: for MIC90: Streptococcus pyogenes
[1] = test system: Viridans group streptococci; test: MIC by broth microdilution; format: cell-based
Enterococcus faecium = test: MIC by broth microdilution; format: cell-based; conditions: for MIC Range: E. faecium 50%VRE, 10 contemporary clinical isolates; for MIC90: Enterococcus faecium, VRE
Staphylococcus aureus = test: MIC by broth microdilution; format: cell-based; conditions: for MIC90: Staphylococcus aureus
S. aureus MRSA ATCC33591 = test: Mouse sepsis protection model; format: in vivo, mice; conditions: MRSA septicemia, single i.v. dose 1 h post-infection, survival at 48 h
[2] = S. agalactiae, 10 contemporary clinical isolates
[3] = S. epidermidis, 20 contemporary clinical isolates
[4] = S. pyogenes, 10 contemporary clinical isolates
[5] = Viridans Group Streptococci, 5 isolates (S. sanguis, S. mitis, S. anginosus, S. intermedius, S. salivarius)
[6] = S. aureus Daptomycin^NS, 5 contemporary clinical isolates
[7] = S. aureus MRSA, 20 contemporary clinical isolates
[8] = S. aureus VISA, 10 contemporary clinical isolates
[9] = Staphylococcus aureus MSSA, 20 contemporary clinical isolates

Row | Structure (SMILES) | MIC Range (Streptococcus agalactiae; [2]) [µg/mL] | MIC90 (Streptococcus agalactiae) [µg/mL] | MIC90 (Streptococcus pneumoniae) [µg/mL] | MIC Range (S. epidermidis; [3]) [µg/mL] | MIC90 (S. epidermidis) [µg/mL] | MIC Range (Enterococcus faecalis) [µg/mL] | MIC90 (Enterococcus faecalis) [µg/mL] | MIC Range (Streptococcus pyogenes; [4]) [µg/mL] | MIC90 (Streptococcus pyogenes) [µg/mL] | MIC Range [1, 5] [µg/mL] | MIC Range (Enterococcus faecium) [µg/mL] | MIC90 (Enterococcus faecium) [µg/mL] | MIC Range (Staphylococcus aureus; [6]) [µg/mL] | MIC Range (Staphylococcus aureus; [7]) [µg/mL] | MIC Range (Staphylococcus aureus; [8]) [µg/mL] | MIC Range (Staphylococcus aureus; [9]) [µg/mL] | MIC90 (Staphylococcus aureus; MRSA) [µg/mL] | MIC90 (Staphylococcus aureus; MSSA) [µg/mL] | MIC90 (Staphylococcus aureus; VISA) [µg/mL] | further results
1 | CCCCCCCCCC(=O)N[C@@H](Cc1c[nH]c2ccccc12)C(=O)N[C@H](CC(N)=O)C(=O)N[C@@H](CC(=O)O)C(=O)N[C@@H]1C(=O)NCC(=O)N[C@@H](CCCN)C(=O)N[C@@H](CC(=O)O)C(=O)N[C@H](C)C(=O)N[C@@H](CC(=O)O)C(=O)NCC(=O)N[C@H](CO)C(=O)N[C@@H]([C@H](C)CC(=O)O)C(=O)N[C@@H](CC(=O)c2ccccc2N)C(=O)O[C@@H]1C [Daptomycin] | 0.06 to 0.25 | 0.12 (≈ 0.074 µM) | ≤ 0.03 | 0.06 to 0.25 | 0.25 (≈ 0.154 µM) | 0.12 to 8 | 0.5 (≈ 0.309 µM) | ≤0.03 to 0.06 | 0.06 (≈ 0.037 µM) | 0.06 to 0.25 | 0.5 to 1 | 1 (≈ 0.617 µM) | 2 to 8 | 0.12 to 0.25 | 0.25 to 1 | 0.12 to 0.25 | 0.25 (≈ 0.154 µM) | 0.25 (≈ 0.154 µM) | 1 (≈ 0.617 µM) | MIC Range (Staphylococcus aureus; S. aureus Linezolid^R, 5 contemporary clinical isolates): 0.25 to 0.5 µg/mL
2 | CN[C@H](CC(C)C)C(=O)N[C@H]1C(=O)N[C@@H](CC(N)=O)C(=O)N[C@H]2C(=O)N[C@H]3C(=O)N[C@H](C(=O)N[C@H](C(=O)O)c4cc(O)cc(O)c4-c4cc3ccc4O)[C@H](O)c3ccc(c(Cl)c3)Oc3cc2cc(c3O[C@@H]2O[C@H](CO)[C@@H](O)[C@H](O)[C@H]2O[C@H]2C[C@](C)(N)[C@H](O)[C@H](C)O2)Oc2ccc(cc2Cl)[C@H]1O [Vancomycin, vancomycin] | – | 0.5 (≈ 0.345 µM) | 0.25 (≈ 0.173 µM) | – | 2 (≈ 1.38 µM) | – | > 32 | – | 0.25 (≈ 0.173 µM) | – | – | > 32 | – | – | – | – | 1 (≈ 0.69 µM) | 1 (≈ 0.69 µM) | 8 (≈ 5.52 µM) | MIC Range (Streptococcus agalactiae): 0.25 to 0.5 µg/mL; PD50 (protective dose at which half of the animals survive) (S. aureus MRSA ATCC33591): 2.75 mg per kg; MIC Range (Streptococcus pneumoniae): 0.12 to 0.5 µg/mL; MIC Range (S. epidermidis): 1 to 2 µg/mL; MIC Range (Streptococcus pyogenes): 0.25 µg/mL (≈ 0.173 µM); MIC Range [1]: 0.25 to 0.5 µg/mL; MIC Range (Staphylococcus aureus): 0.5 to 1 µg/mL and 0.5 to 2 µg/mL and 1 to 8 µg/mL and 0.5 to 8 µg/mL and 1 µg/mL
3 | CC(=O)NC[C@H]1CN(c2ccc(N3CCOCC3)c(F)c2)C(=O)O1 [Linezolid] | 0.5 to 2 | 1 (≈ 2.96 µM) | 1 (≈ 2.96 µM) | 1 to 8 | 2 (≈ 5.93 µM) | 1 to 2 | 2 (≈ 5.93 µM) | 0.5 to 1 | 1 (≈ 2.96 µM) | 0.5 to 1 | 1 to 2 | 2 (≈ 5.93 µM) | 1 to 32 | 2 to 4 | 1 to 4 | 2 to 4 | 4 (≈ 11.9 µM) | 4 (≈ 11.9 µM) | 2 (≈ 5.93 µM) | –

— PMC7414797 (Nature, 2015)
